Like-named read-outs stand apart in the source and are kept apart here.
Legend:
[1] = system: M. polytrota; assay: Antibiotic susceptibility of producing strain; assay type: cell-based, Micromonospora polytrota; conditions: for Growth in the presence of 50 mcg/ml antibiotic: M. polytrota; for sensitivity of M. polytrota: concentration not given
Procedure: Test antibiotics were dissolved in the appropriate solvent at a concentration based on an activity of 1000 mcg/ml. Stock solutions were diluted in sterile distilled water to a final concentration of 500 mcg/ml and filter sterilized ([…] filters, Millipore Corporation). To 10 ml of the sterile antibiotic solutions, 90 ml of melted agar consisting of yeast extract, 10 g; dextrose, 10 g; agar, 15 g; tap water, 1000 ml; […] cooled to 45° C. was added, and 20 ml of the resulting mixture was aseptically pipetted into sterile petri dishes (100×150 mm). The final concentration of each antibiotic in the agar was 50 mcg/ml.

[2] = system: Antibiotic AR-5 Resistant strains; assay: In vivo mouse protection test, Antibiotic AR-5 resistant strains; parameters: species or system male (Carworth CF-1) mice; conditions: read-out: Mean PD50
Procedure: (§1) In vivo mouse protection tests were performed in male (Carworth CF-1) mice weighing 18-20 g each. Infection was with about 10^7 organisms per mouse or sufficient inocula to cause death of control groups 24 to 48 hours after infection. The infecting organisms included strains of Staphylococcus Enterococcus, β-hemolytic Streptococcus and E. coli.

[3] = system: Antibiotic AR-5 Sensitive strains; assay: In vivo mouse protection test, Antibiotic AR-5 sensitive strains; parameters: species or system male (Carworth CF-1) mice; conditions: for ED50: Mus musculus, Antibiotic AR-5 sensitive strains, number of strains averaged in parentheses, read-out: Mean PD50; for oral potency relative to erythromycin and rosaramicin (fold more potent): in vivo PD50, in general
Procedure: as §1

[4] = Acute toxicity in mice; conditions: mouse, in vivo, male CF-1 mice, survivors at 24 and 48 hours
Procedure: The acute toxicity determinations were carried out with groups of male (Carworth CF-1) mice weighing 18-20 g. LD50 values […] the dose that was lethal to 50% of the mice) were calculated by probit analysis based on the number of survivors at 24 and 48 hours after dosing.

[5] = Serum levels of the antibiotics; assay type: in vivo; conditions: mice, rats and dogs
Procedure: The serum levels of the respective antibiotics were measured in mice, rats and dogs.

**Q.** With `CCC[C@@H]1C[C@@H](C(=O)N[C@@H]([C@H]2O[C@H](SC)[C@H](O)[C@@H](O)[C@H]2O)[C@@H](C)O)N(C)C1` [Lincomycin] as the molecule, how does the “Growth in the presence of 50 mcg/ml antibiotic” value (“Growth in the presence” below) [1] read?
**A.** Its value is “grows”.

**Q.** For `CCC[C@@H]1C[C@@H](C(=O)N[C@@H]([C@H]2O[C@H](SC)[C@H](O)[C@@H](O)[C@H]2O)[C@H](C)Cl)N(C)C1` [Clindamycin], which “Growth in the presence” value [1] is on record?
**A.** The value was “grows”.

**Q.** Which results are given for `CCC1OC(=O)/C=C/C(C)C(OC2OC(C)CC(N(C)C)C2O)C(C)CC(C)C(=O)/C=C/C=C/C1COC1OC(C)C(O)C(OC)C1OC` (stereo not drawn) [B, 12,13-desepoxy AR-5 component 1]?
**A.** ED50 ([2]; po): 100 mg/kg; ED50 ([2]; sc): 100 mg/kg; ED50 ([3]; sc): 2.5 mg/kg; ED50 ([3]; oral): 3.8 mg/kg; oral potency relative to erythromycin and rosaramicin (fold more potent) ([3]; oral): 30-40 fold; LD50 ([4]; ip): 275 mg/kg; LD50 ([4]; iv): 160 mg/kg

**Q.** With Gentamicin as the molecule, how does the “Growth in the presence” value [1] read?
**A.** Its value is “grows”.

**Q.** For `O=C(N[C@H](CO)[C@H](O)c1ccc([N+](=O)[O-])cc1)C(Cl)Cl` [Chloramphenicol], which “sensitivity of M. polytrota” value [1] is on record?
**A.** The value was “exhibits sensitivity”.

**Q.** Which results are given for `CC[C@H]1OC(=O)[C@H](C)[C@@H](O[C@H]2C[C@@](C)(OC)[C@@H](O)[C@H](C)O2)[C@H](C)[C@@H](O[C@@H]2O[C@H](C)C[C@H](N(C)C)[C@H]2O)[C@](C)(O)C[C@@H](C)C(=O)[C@H](C)[C@@H](O)[C@]1(C)O` [E, Erythromycin, reference compound]?
**A.** ED50 ([2]; po): 400 mg/kg; ED50 ([2]; sc): 100 mg/kg; ED50 ([3]; sc): 13.3 mg/kg; ED50 ([3]; oral): 135 mg/kg; LD50 ([4]; ip): 355 mg/kg; LD50 ([4]; iv): 260 mg/kg

**Q.** Which ED50 ([2]; po) does the source give for `CCC1OC(=O)/C=C/C(C)C(OC2OC(C)CC(N(C)C)C2O)C(C)CC(C)C(=O)/C=C/C2OC2C1(O)COC1OC(C)C(O)C(OC)C1OC` (stereo not drawn) [C, Antibiotic AR-5 component 2] here?
**A.** Its ED50 is 100 mg/kg.

**Q.** What about the ED50 ([2]; sc) of the same molecule?
**A.** The ED50 was 100 mg/kg.

**Q.** And the ED50 ([3]; sc)?
**A.** The ED50 was 5.1 mg/kg.

**Q.** And the ED50 ([3]; oral)?
**A.** Its ED50 is 35.8 mg/kg.

**Q.** What about the “time of peak serum levels” value ([5]; versus the other antibiotics tested) of the same molecule?
**A.** Its value is “produces peak serum levels earlier than any of the other antibiotics tested”.

**Q.** And the LD50 ([4]; ip)?
**A.** The LD50 was 610 mg/kg.

**Q.** And the LD50 ([4]; iv)?
**A.** The LD50 was 310 mg/kg.

**Q.** Which results are given for `CCC1OC(=O)/C=C/C(C)C(OC2OC(C)CC(N(C)C)C2O)C(C)CC(C)C(=O)/C=C/C2OC2C1COC1OC(C)C(O)C(OC)C1OC` (stereo not drawn) [A, Antibiotic AR-5 component 1]?
**A.** ED50 ([2]; po): 100 mg/kg; ED50 ([2]; sc): 100 mg/kg; ED50 ([3]; sc): 4 mg/kg; ED50 ([3]; oral): 4.1 mg/kg; oral potency relative to erythromycin and rosaramicin (fold more potent) ([3]; oral): 30-40 fold; duration of therapeutic serum levels [5]: produces therapeutic serum levels of greater duration; LD50 ([4]; ip): 310 mg/kg; LD50 ([4]; iv): 140 mg/kg

**Q.** For `CC[C@H]1OC(=O)C[C@@H](O)[C@H](C)[C@@H](O[C@@H]2O[C@H](C)C[C@H](N(C)C)[C@H]2O)[C@@H](CC=O)C[C@@H](C)C(=O)/C=C/[C@]2(C)O[C@H]2[C@@H]1C` [F, Rosaramicin, reference compound], which ED50 ([2]; po) is on record?
**A.** Its ED50 is 400 mg/kg.

**Q.** What about the ED50 ([2]; sc) of the same molecule?
**A.** Its ED50 is 100 mg/kg.

**Q.** What about the ED50 ([3]; sc) of the same molecule?
**A.** Its ED50 is 8.3 mg/kg.

**Q.** And the ED50 ([3]; oral)?
**A.** Its ED50 is 181 mg/kg.

**Q.** And the “sensitivity of M. polytrota” value [1]?
**A.** The value was “exhibits sensitivity”.

**Q.** What about the LD50 ([4]; ip) of the same molecule?
**A.** Its LD50 is 260 mg/kg.

**Q.** And the LD50 ([4]; iv)?
**A.** The LD50 was 175 mg/kg.

**Q.** And the LD50 ([4]; oral)?
**A.** The LD50 was 1300 mg/kg.

**Q.** Which “Growth in the presence” value [1] does the source give for `NC[C@H]1O[C@H](O[C@H]2[C@H](O)[C@@H](O[C@H]3O[C@H](CO)[C@@H](O)[C@H](N)[C@H]3O)[C@H](N)C[C@@H]2N)[C@H](O)[C@@H](O)[C@@H]1O` [Kanamycin] here?
**A.** The value was “grows”.

**Q.** For `CN[C@@H]1[C@@H](O)[C@@H](O[C@@H]2[C@@H](O)[C@H](O[C@H]3OC(CN)=CC[C@H]3N)[C@@H](N)C[C@H]2N)OC[C@]1(C)O` [Sisomicin], which “Growth in the presence” value [1] is on record?
**A.** The value was “grows”.

— patent US4367287A, “Process of producing antibiotic AR-5 complex” (Schering Corporation, priority 1981, dated 1983)
